Data published in patent US7696383B2 (Solvay Pharmaceuticals B.V., priority 2007, dated 2010).
Marks after values point to notes of the source that are not given here. Values belong to the compound of their own block, whether it stands above or below them.

How the values were obtained:
[1] = tested on: dopamine, noradrenaline and serotonine reuptake; experiment: In vitro pharmacology, summary in words over binding and reuptake inhibition
Description: (§1) In vitro affinity for neurotransmitter reuptake sites were either obtained by CEREP (128, rue Danton, 92500 Rueil-Malmaison, France) or at Solvay Pharmaceuticals B. V. (C. J. van Houtenlaan 36, 1381 CP Weesp, The Netherlands), using well documented procedures. Measured were affinities for serotonin (Tatsumi, 1999), norepinephrine (Pacholczyk, 1991) and dopamine reuptake sites (Pristupa, 1994).
(§2) Subsequently, the synaptosomes were exposed to [^3H]-serotonin ([…] final concentration) for 10 min. [^3H]-Serotonine uptake was stopped by filtration with a harvester and the non-incorporated radioactivity was removed by extensive washing. Filter plates with synaptosomes were dehydrated, and the amount of [^3H]-serotonin present was determined by Betaplate liquid scintillation counting.
In vitro functional inhibition of [^3H]-norepinephrine reuptake: male rats (Wistar Hsd/Cpb: WU; 175-200 g) were decapitated, the hypothalamus was rapidly removed and a crude synaptosomal fraction was prepared. […] [^3H]-Norepinephrine uptake was stopped by filtration with a harvester and the non-incorporated radioactivity was removed by an extensive washing programme. The filterplates with synaptosomes were dehydrated and the amount of [^3H]-norepinephrine present was determined by Betaplate liquid scintillation counting. […]

[2] = in vivo; conditions: for AUC0→∞: Tend = ∞
Description: Proteins in 100 μl plasma were precipitated with acetonitrile, and 5 μl samples of the obtained solutions were analyzed. Complete brains were homogenized and centrifuged, and 10 μl samples of the supernatant were analyzed.
Liquid Chromatography-Tandem Mass Spectrometry (LC-MS/MS) was performed using a Sciex API4000 LC-MS/MS. Samples were quantified using extracted calibration samples, treated the same as the study samples, in the range of 1-5000 ng/ml and 5.0-5000 ng/brain for plasma and brain samples, respectively. Compound peak area was used for quantification. Calibration curves were fitted to the model y=A+Bx+Cx^2 (y is the peak area of the analyte, x is the nominal calibration level in ng/ml (plasma) or ng/g (brain), A is the intercept, B is the slope and C is the description of the curvature). 1/x^2 weighing was used. LC-MS/MS system performance was monitored using a reference solution injected at standard intervals. […] The Lower Limit Of Quantification (LLOQ) was established at 1.00 ng/ml and 5.00 ng/brain, for plasma and brain samples, respectively. Values below the LLOQ were given as best estimate. Reversed phase HPLC was performed using gradient elution by a Hypersil BDS C18 100×4.6 mm 3 μm analytical column, at 45° C. and with a flow of 1.00 ml/min: […]

[3] = target: dopamine reuptake sites (Homo sapiens, UniProt Q01959); experiment: In vitro affinity for dopamine reuptake sites; type: binding; conditions: for Ki: read-out: Dopamine binding pKi (converted)
dopamine reuptake sites, sequence (Q01959 whole entry): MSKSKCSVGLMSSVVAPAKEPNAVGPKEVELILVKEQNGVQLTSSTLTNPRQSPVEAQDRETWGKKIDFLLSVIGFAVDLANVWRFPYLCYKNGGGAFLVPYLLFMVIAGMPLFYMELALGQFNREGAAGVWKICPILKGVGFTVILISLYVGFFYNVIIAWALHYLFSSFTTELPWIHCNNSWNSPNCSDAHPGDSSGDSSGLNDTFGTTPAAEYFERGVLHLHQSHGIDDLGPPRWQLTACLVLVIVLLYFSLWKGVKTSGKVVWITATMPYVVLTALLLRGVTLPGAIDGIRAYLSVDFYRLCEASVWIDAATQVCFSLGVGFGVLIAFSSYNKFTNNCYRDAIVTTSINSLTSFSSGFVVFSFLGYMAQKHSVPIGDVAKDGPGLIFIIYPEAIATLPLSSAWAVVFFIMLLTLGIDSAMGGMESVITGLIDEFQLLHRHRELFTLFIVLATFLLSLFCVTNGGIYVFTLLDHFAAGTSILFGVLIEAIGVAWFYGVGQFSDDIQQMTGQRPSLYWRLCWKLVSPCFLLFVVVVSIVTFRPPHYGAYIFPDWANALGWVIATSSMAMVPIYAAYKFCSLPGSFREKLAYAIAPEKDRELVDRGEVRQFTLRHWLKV
Excerpt: as §1

[4] = target: T1, [3H]-dopamine reuptake (Rattus norvegicus, UniProt P23977); experiment: In vitro functional inhibition of [3H]-dopamine reuptake, striatum synaptosomes; type: biochemical; conditions: for IC50: read-out: Dopamine inhibition pIC50 (converted)
T1 construct: the striatum was rapidly removed and a crude synaptosomal fraction (P2) was prepared; from tissue; host or cells: rat striatum, crude P2 synaptosomal fraction
T1 sequence (P23977 whole entry): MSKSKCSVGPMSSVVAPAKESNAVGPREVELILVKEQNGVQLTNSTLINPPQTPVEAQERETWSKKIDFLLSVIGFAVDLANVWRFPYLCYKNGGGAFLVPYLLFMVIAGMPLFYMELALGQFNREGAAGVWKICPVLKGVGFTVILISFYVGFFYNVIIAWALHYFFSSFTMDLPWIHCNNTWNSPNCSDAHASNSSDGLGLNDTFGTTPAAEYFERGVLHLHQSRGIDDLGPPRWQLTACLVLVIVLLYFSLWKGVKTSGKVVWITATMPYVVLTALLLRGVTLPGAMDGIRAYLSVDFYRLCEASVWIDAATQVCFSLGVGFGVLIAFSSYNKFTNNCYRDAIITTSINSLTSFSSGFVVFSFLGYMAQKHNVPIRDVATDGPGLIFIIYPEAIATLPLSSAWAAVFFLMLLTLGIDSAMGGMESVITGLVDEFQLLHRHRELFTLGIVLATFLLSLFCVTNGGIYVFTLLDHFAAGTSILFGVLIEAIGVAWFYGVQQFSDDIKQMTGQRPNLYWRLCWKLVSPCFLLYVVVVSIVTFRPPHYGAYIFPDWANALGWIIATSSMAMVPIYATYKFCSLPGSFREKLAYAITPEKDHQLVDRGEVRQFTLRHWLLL
Description: In vitro functional inhibition of [^3H]-dopamine reuptake: male rats (Wistar Hsd/Cpb: WU; 175-200 g) were decapitated; the striatum was rapidly removed and a crude synaptosomal fraction (P2) was prepared by homogenization and centrifugation. Synaptosomes were pre-incubated in absence or presence of the test compound for 15 min at 37° C., in a medium containing the monoamine oxidase inhibitor pargyline (7×10^−6 M) (Coyle, 1969). Subsequently, [^3H]-dopamine (2×10^−7 M final concentration) was added and incubation was continued for 10 min. [^3H]-dopamine uptake was stopped by filtration and the synaptosomes were washed four times with phosphate buffered saline. The amount of [^3H]-dopamine in the synaptosomes was determined by Betaplate liquid scintillation counting. […] Inhibition of DA uptake was performed in duplicate.

[5] = target: serotonin reuptake sites (Homo sapiens, UniProt P31645); experiment: In vitro affinity for serotonin reuptake sites; type: binding; conditions: for Ki: read-out: Serotonine binding pKi (converted)
serotonin reuptake sites, sequence (P31645 whole entry): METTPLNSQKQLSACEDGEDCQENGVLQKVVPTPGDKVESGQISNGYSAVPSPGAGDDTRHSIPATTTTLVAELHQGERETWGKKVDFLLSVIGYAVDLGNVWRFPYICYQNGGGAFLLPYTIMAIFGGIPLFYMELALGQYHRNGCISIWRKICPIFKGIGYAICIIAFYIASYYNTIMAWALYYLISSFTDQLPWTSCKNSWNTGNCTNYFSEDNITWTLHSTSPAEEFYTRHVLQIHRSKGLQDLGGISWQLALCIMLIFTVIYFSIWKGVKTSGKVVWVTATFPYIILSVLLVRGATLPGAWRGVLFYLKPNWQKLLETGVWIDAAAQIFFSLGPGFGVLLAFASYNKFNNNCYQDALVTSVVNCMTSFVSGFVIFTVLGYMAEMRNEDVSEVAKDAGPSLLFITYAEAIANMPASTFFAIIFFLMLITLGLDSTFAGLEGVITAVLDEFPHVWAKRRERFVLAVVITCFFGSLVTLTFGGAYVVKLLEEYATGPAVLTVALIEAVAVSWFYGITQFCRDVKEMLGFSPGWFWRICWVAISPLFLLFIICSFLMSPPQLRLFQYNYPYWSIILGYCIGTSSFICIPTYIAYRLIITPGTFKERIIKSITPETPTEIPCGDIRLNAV

[6] = Reduction of venlafaxine N-oxide in the human colon model TIM2; type: in vitro ADME; conditions: within 2 hours after dosing
Description: The human colon model TIM2 (TNO Intestinal Model 2): this model is a dynamic model for the human large intestine that simulates in vivo conditions. It is an artificial digestive system that has been validated by many studies (Minekus, 1999).
Suspended in 1% methylcellulose, venlafaxine-N-oxide (1 mg) was inserted into the lumen (120 ml) of the TIM2 model (see above, Minekus, 1999). Samples from the lumen and the dialysate (the latter being a model for the vascular bed of the intestines) were taken at various time intervals, and analyzed for venlafaxine-N-oxide and venlafaxine.

[7] = target: norepinephrine reuptake sites (Homo sapiens, UniProt P23975); experiment: In vitro affinity for norepinephrine reuptake sites; type: binding; conditions: for Ki: read-out: Noradrenaline binding pKi (converted)
norepinephrine reuptake sites, sequence (P23975 whole entry): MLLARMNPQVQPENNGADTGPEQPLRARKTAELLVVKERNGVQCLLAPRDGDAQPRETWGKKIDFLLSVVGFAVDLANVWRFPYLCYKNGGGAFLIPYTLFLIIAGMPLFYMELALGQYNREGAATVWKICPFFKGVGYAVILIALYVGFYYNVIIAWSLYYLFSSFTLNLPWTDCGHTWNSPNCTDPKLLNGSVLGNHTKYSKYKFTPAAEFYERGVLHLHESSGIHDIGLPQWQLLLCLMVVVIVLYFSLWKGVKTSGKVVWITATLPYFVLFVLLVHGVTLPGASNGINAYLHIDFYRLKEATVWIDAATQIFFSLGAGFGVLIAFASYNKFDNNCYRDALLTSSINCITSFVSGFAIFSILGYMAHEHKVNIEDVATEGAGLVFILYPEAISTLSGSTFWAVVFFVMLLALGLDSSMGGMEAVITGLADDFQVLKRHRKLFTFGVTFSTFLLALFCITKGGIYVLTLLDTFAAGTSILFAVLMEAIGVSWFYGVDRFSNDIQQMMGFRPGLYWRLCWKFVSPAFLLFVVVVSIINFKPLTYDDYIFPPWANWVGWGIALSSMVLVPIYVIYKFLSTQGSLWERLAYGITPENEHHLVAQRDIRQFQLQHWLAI

[8] = target: T2, [3H]-norepinephrine reuptake (Rattus norvegicus, UniProt Q63380); experiment: In vitro functional inhibition of [3H]-norepinephrine reuptake, hypothalamus synaptosomes; type: biochemical; conditions: for IC50: read-out: Noradrenaline inhibition pIC50 (converted)
T2 construct: the hypothalamus was rapidly removed and a crude synaptosomal fraction was prepared; from tissue; host or cells: rat hypothalamus, crude synaptosomal fraction
T2 sequence (Q63380 1-617): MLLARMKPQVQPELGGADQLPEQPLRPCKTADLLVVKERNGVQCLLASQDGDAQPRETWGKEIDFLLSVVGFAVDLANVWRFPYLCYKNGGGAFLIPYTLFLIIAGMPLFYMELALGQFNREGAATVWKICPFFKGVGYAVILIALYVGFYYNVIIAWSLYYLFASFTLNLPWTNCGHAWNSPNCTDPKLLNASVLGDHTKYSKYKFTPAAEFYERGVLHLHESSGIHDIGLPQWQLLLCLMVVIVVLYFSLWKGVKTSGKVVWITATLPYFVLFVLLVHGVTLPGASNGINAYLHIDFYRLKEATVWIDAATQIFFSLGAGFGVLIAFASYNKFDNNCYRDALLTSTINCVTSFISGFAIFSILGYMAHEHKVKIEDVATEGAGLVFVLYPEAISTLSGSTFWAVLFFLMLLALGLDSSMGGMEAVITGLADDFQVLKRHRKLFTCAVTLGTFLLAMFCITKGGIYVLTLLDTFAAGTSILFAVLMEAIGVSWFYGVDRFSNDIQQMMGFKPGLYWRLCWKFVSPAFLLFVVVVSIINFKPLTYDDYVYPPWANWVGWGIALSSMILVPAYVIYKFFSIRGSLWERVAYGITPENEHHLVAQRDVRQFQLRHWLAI
Description: In vitro functional inhibition of [^3H]-norepinephrine reuptake: male rats (Wistar Hsd/Cpb: WU; 175-200 g) were decapitated, the hypothalamus was rapidly removed and a crude synaptosomal fraction was prepared. Synaptosomes were pre-incubated in absence or presence of the test compound for 10 min at 37° C., in a medium containing the MAO inhibitor pargyline (7 μM). Subsequently, the synaptosomes were exposed to [^3H]-norepinephrine ([…] final concentration) for 15 min. [^3H]-Norepinephrine uptake was stopped by filtration with a harvester and the non-incorporated radioactivity was removed by an extensive washing programme. The filterplates with synaptosomes were dehydrated and the amount of [^3H]-norepinephrine present was determined by Betaplate liquid scintillation counting. […] Test compounds, 10^−2 M dissolved in DMSO, were diluted in Krebs Ringer buffer to test concentrations of 10^−8-10^−5 M. Further experimental details were as described (Coyle, 1969).

[9] = target: T3, [3H]-serotonin reuptake (Rattus norvegicus, UniProt P31652); experiment: In vitro functional inhibition of [3H]-serotonin reuptake, cerebral hemisphere synaptosomes; type: biochemical; conditions: for IC50: read-out: Serotonine inhibition pIC50 (converted)
T3 construct: the cerebral hemispheres were rapidly removed, and a P2-synaptosomal fraction was prepared; from tissue; host or cells: rat cerebral hemispheres, P2 synaptosomal fraction
T3 sequence (P31652 whole entry): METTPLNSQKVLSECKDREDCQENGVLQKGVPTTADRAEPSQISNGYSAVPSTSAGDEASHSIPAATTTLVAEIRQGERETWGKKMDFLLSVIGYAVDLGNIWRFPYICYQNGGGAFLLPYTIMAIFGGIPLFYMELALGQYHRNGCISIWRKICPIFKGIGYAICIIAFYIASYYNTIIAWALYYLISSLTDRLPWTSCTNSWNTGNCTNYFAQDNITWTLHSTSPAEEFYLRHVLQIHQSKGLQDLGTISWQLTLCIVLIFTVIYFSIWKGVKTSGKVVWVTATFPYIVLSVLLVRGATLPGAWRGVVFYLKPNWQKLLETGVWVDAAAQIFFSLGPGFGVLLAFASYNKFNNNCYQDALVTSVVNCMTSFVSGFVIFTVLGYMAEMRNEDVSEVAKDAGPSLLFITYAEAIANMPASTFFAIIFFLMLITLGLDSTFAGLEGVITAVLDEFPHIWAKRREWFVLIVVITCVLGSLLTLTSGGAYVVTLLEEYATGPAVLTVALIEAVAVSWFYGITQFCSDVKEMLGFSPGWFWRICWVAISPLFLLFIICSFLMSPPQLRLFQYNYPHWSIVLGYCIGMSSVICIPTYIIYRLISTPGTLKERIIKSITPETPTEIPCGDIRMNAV
Description: as §2

[10] = male, NMRI, mouse, in vivo, iv, 1 mg/kg
[11] = male, NMRI, mouse, in vivo, po, 10 mg/kg
[12] = male, NMRI, mouse, plasma, iv, 1 mg/kg
[13] = male, NMRI, mouse, plasma, po, 10 mg/kg
[14] = mice, labelled compound given 1.0 mg/kg i.v., 0.5 h
[15] = mice, labelled compound given 1.0 mg/kg i.v., 1 h
[16] = mice, labelled compound given 1.0 mg/kg i.v., 3 h
[17] = mice, labelled compound given 1.0 mg/kg i.v., 7 h
[18] = mice, labelled compound given 1.0 mg/kg i.v., 24 h
[19] = mice, labelled compound given 10 mg/kg p.o., 0.5 h
[20] = mice, labelled compound given 10 mg/kg p.o., 1 h
[21] = mice, labelled compound given 10 mg/kg p.o., 3 h
[22] = mice, labelled compound given 10 mg/kg p.o., 7 h
[23] = mice, labelled compound given 10 mg/kg p.o., 24 h

SMILES: CN(C)CC(c1ccc(O)cc1)C1(O)CCCCC1 (racemic) [O-desmethylvenlafaxine, (R,S)-1-[2-(dimethylamino)-1-(4-hydroxyphenyl)ethyl]-cyclohexanol]
In vitro activity, in words [1]: equipotent with venlafaxine

SMILES: COc1ccc(C(CN(C)C)C2(O)CCCCC2)cc1 (racemic) [Venlafaxine, (R,S)-1-(2-(Dimethylamino)-1-(4-methoxyphenyl)ethyl)cyclohexanol, reference compound]
In vitro activity, in words [1]: most potent as inhibitor of serotonine reuptake | Kp [2, 10]: 3.1 | half-life [2, 10]: 48 min | Kp [2, 11]: 3.4 | half-life [2, 11]: 54 min | AUC [2, 12]: 194 ng·h/mL | AUC(0-inf) [2, 12]: 195 ng·h/mL | Cmax [2, 12]: 408 ng/mL | Tmax [2, 12]: 0 min | Vd [2, 12]: 6.2 L/kg | clearance [2, 12]: 85.6 mL/min/kg | bioavailability ([2]; male, NMRI, mouse, plasma, oral, 10 mg/kg): 48.7% | AUC [2, 13]: 943 ng·h/mL | AUC(0-inf) [2, 13]: 948 ng·h/mL | Cmax [2, 13]: 630 ng/mL | Tmax [2, 13]: 12 min | N-oxide found in brain ([2]; mice, after administration of venlafaxine): only traces

SMILES: COc1ccc(C(C[N+](C)(C)[O-])C2(O)CCCCC2)cc1 (racemic) [Venlafaxine-N-oxide, (R,S)-1-[2-oxido-(dimethylamino)-1-(4-methoxyphenyl)ethyl]-cyclohexanol]
Dopamine binding pKi [3]: <4.5 | Dopamine inhibition pIC50 [4]: 4.5 | Brain/plasma ratio ([2]; i.v. 1 mg/kg): 0.1 | bioavailability ([2]; i.v., 10 mg/kg p.o. against 1 mg/kg i.v.): 23.3% | Conversion in vivo after administration ([2]; mice): reduced to the parent compound | Time after which venlafaxine concentrations in plasma and brain exceed those of the N-oxide ([2]; mice, after i.v. administration of venlafaxine-N-oxide): Approximately one hour | Factor by which venlafaxine concentrations in plasma and brain are higher than those of the N-oxide ([2]; mice, after oral administration of venlafaxine-N-oxide): 10 to 100 | Plasma concentration of Venlafaxine [2, 14]: 22 ng/mL | Plasma concentration of Venlafaxine-N-oxide [2, 14]: 173 ng/mL | Plasma concentration of Venlafaxine [2, 15]: 8.0 ng/mL | Plasma concentration of Venlafaxine-N-oxide [2, 15]: 39 ng/mL | Plasma concentration of Venlafaxine [2, 16]: 0.59 ng/mL | Plasma concentration of Venlafaxine-N-oxide [2, 16]: 7.3 ng/mL | Plasma concentration of Venlafaxine [2, 17]: 0 ng/mL | Plasma concentration of Venlafaxine-N-oxide [2, 17]: 0.16 ng/mL | Plasma concentration of Venlafaxine [2, 18]: 0 ng/mL | Plasma concentration of Venlafaxine-N-oxide [2, 18]: 0 ng/mL | Plasma concentration of Venlafaxine [2, 19]: 72 ng/mL | Plasma concentration of Venlafaxine-N-oxide [2, 19]: 840 ng/mL | Plasma concentration of Venlafaxine [2, 20]: 117 ng/mL | Plasma concentration of Venlafaxine-N-oxide [2, 20]: 183 ng/mL | Plasma concentration of Venlafaxine [2, 21]: 77 ng/mL | Plasma concentration of Venlafaxine-N-oxide [2, 21]: 38 ng/mL | Plasma concentration of Venlafaxine [2, 22]: 3.3 ng/mL | Plasma concentration of Venlafaxine-N-oxide [2, 22]: 0.75 ng/mL | Plasma concentration of Venlafaxine [2, 23]: 0.63 ng/mL | Plasma concentration of Venlafaxine-N-oxide [2, 23]: 0.12 ng/mL | Brain penetration ([2]; mouse, in vivo): hardly penetrates the brain | VD ([2]; mouse, in vivo, iv, 1 mg/kg): 3 L/kg | clearance ([2]; mouse, in vivo, iv, 1 mg/kg): 46.1 mL/min/kg | t1/2 ([2]; plasma, i.v. 1 mg/kg): 48 min | AUC0→end ([2]; plasma, i.v. 1 mg/kg, Tend = 7 hrs): 361.6 ng·h/mL | AUC0→∞ ([2]; plasma, i.v. 1 mg/kg): 361.7 ng·h/mL | Cmax (C0) ([2]; plasma, i.v. 1 mg/kg, extrapolated to T0 (time zero)): 1205.2 (C0)* ng/ml | Cmax ([2]; plasma, p.o. 10 mg/kg): 1040.0 ng/mL | t1/2 ([2]; plasma, p.o. 10 mg/kg): 186 min | AUC0→end ([2]; plasma, p.o. 10 mg/kg, Tend = 24 hrs): 841.6 ng·h/mL | AUC0→∞ ([2]; plasma, p.o. 10 mg/kg): 842.2 ng·h/mL | Serotonine binding pKi [5]: 5.5 | Reduction to venlafaxine in TIM2 [6]: nearly quantitatively reduced to venlafaxine | Noradrenaline binding pKi [7]: <4.5 | Noradrenaline inhibition pIC50 [8]: 4.9 | Serotonine inhibition pIC50 [9]: 4.9

SMILES: COc1ccc([C@H](C[N+](C)(C)[O-])C2(O)CCCCC2)cc1 [(R)-venlafaxine-N-oxide, R-Venlafaxine N-oxide]
Ki [3]: > 31.6 µM | IC50 [4]: > 31.6 µM | Ki [5]: 7.94 µM | Ki [7]: > 31.6 µM | IC50 [8]: 39.8 µM | IC50 [9]: 20 µM

Results, then the compound that gave them:

IC50 [4]: 5.01 µM | IC50 [8]: 0.398 µM
SMILES: CN(C)C[C@@H](c1ccc(O)cc1)C1(O)CCCCC1 [(R)—O-desmethyl-venlafaxine, O-desmethyl-R-Venlafaxine, reference compound]

Ki [3]: > 31.6 µM | IC50 [4]: > 31.6 µM | Ki [5]: 10 µM | Ki [7]: > 31.6 µM | IC50 [8]: > 31.6 µM | IC50 [9]: 39.8 µM
SMILES: C[N+](C)([O-])C[C@@H](c1ccc(O)cc1)C1(O)CCCCC1 [(R)—O-desmethyl-venlafaxine-N-oxide, O-Desmethyl-R-venlafaxine N-oxide]

Ki [3]: > 31.6 µM | IC50 [4]: > 31.6 µM | Ki [5]: 6.31 µM | Ki [7]: > 31.6 µM | IC50 [8]: > 31.6 µM | IC50 [9]: 15.8 µM
SMILES: COc1ccc([C@@H](C[N+](C)(C)[O-])C2(O)CCCCC2)cc1 [(S)-venlafaxine-N-oxide, S-Venlafaxine N-oxide]

IC50 [4]: 10 µM | IC50 [8]: 0.398 µM
SMILES: CN(C)C[C@H](c1ccc(O)cc1)C1(O)CCCCC1 [(S)—O-desmethyl-venlafaxine, O-desmethyl-S-Venlafaxine, reference compound]

Ki [3]: > 31.6 µM | IC50 [4]: > 31.6 µM | Ki [5]: 12.6 µM | Ki [7]: > 31.6 µM | IC50 [8]: > 31.6 µM | IC50 [9]: 25.1 µM
SMILES: C[N+](C)([O-])C[C@H](c1ccc(O)cc1)C1(O)CCCCC1 [(S)—O-desmethyl-venlafaxine-N-oxide, O-desmethyl-S-venlafaxine N-oxide]
